For 14 molecules, IC50 results are on record in ChEMBL document CHEMBL1130917, “The design, synthesis, and structure-activity relationships of a series of macrocyclic MMP inhibitors” (Bioorg Med Chem Lett, 1998).

Usually IC50 stands for the concentration that gives 50% inhibition.

One assay concerns the target T1, Matrilysin (Homo sapiens, UniProt P09237).
T1 sequence (P09237 whole entry): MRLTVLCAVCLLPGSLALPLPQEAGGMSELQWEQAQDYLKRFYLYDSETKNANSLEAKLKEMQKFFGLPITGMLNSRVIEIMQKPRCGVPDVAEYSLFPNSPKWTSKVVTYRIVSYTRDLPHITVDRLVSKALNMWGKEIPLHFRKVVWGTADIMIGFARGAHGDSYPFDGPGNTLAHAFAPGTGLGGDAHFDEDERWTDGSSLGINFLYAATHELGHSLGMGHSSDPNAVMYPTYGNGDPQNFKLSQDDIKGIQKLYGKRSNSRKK
As to the kind of experiment: Inhibition of fibroblast matrilysin (MMP-7).

Assay [1] has as its target 72 kDa type IV collagenase (Homo sapiens, UniProt P08253). The assay is described as follows: Inhibition of fibroblast gelatinase A (MMP-2).
The target in the next assay is T2, Interstitial collagenase (Homo sapiens, UniProt P03956).
T2 sequence (P03956 whole entry): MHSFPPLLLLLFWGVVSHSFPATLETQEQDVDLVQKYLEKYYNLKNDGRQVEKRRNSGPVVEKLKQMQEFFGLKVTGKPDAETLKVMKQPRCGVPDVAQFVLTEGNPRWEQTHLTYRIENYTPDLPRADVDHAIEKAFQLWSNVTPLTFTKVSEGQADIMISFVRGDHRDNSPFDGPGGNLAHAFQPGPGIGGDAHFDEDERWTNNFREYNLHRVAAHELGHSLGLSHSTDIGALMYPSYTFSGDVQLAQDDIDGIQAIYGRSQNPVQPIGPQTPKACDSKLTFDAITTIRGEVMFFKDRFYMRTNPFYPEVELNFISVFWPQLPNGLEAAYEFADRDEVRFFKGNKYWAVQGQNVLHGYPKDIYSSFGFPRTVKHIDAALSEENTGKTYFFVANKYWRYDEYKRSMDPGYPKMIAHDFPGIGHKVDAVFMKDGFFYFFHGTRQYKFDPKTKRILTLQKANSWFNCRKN
The assay is described as follows: Inhibition of fibroblast collagenase (MMP-1).

In the next assay the target is Stromelysin-1 (Homo sapiens, UniProt P08254). As to the kind of experiment: Inhibition of fibroblast stromelysin (MMP-3).
Chain of Stromelysin-1 (P08254 whole entry): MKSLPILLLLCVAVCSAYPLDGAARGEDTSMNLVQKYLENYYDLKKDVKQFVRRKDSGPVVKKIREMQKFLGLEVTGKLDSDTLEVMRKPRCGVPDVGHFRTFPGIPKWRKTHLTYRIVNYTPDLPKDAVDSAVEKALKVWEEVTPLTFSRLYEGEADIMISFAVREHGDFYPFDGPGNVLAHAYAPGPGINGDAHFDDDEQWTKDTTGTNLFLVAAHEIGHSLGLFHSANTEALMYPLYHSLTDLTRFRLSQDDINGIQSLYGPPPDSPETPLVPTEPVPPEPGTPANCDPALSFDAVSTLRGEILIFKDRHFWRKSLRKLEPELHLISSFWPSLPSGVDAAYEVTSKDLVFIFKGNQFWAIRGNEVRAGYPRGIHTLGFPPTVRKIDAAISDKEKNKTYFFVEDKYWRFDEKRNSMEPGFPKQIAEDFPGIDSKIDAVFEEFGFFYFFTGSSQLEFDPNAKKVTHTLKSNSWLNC

Chain of 72 kDa type IV collagenase (P08253 whole entry): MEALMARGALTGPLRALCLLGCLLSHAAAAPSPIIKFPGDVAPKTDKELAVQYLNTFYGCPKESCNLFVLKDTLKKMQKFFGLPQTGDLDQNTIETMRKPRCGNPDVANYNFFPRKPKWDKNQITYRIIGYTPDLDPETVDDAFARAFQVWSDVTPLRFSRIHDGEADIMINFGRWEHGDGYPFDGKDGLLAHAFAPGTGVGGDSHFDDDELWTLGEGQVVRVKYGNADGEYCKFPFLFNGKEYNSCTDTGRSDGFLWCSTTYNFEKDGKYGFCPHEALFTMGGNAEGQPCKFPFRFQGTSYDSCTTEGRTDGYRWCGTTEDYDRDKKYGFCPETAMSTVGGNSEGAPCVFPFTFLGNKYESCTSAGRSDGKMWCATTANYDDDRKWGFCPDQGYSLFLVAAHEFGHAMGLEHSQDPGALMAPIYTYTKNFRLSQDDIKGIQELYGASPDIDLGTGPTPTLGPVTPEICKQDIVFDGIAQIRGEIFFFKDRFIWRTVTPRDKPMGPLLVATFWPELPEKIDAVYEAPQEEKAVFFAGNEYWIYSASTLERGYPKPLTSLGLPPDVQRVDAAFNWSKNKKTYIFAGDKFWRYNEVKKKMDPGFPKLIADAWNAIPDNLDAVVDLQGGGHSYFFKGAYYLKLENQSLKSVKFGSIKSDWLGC

For `CNC(=O)[C@@H]1Cc2ccc(cc2)OCCC[C@H](C(=O)NO)[C@@H](CC(C)C)C(=O)N1`, the half-maximal inhibitory concentration (IC50) against Matrilysin worked out at 3 nM; in assay [1] it was 2.6 nM; against Interstitial collagenase, 3 nM.

With `CC(C)C[C@H]1C(=O)N[C@H](C(=O)Nc2ccccn2)Cc2ccc(cc2)OCCCC[C@@H]1C(=O)NO`, the IC50 on Matrilysin turned out to be 1.6 nM; in assay [1], 2.1 nM; on Interstitial collagenase it was 4.6 nM.

Consider `CNC(=O)[C@@H]1Cc2ccc(cc2)OCCC[C@H](C(=O)O)[C@@H](CC(C)C)C(=O)N1`, for which the IC50 against Matrilysin was 900 nM; in assay [1], 14000 nM; at Interstitial collagenase, greater than 10000 nM.

Take `CSCCNC(=O)[C@@H]1Cc2ccc(cc2)OCCCC[C@H](C(=O)NO)[C@@H](CC(C)C)C(=O)N1`: the IC50 against Matrilysin is 2.5 nM; at Stromelysin-1 it was 4.2 nM; in assay [1], 3.8 nM; on Interstitial collagenase, 2.7 nM.

Consider `CNC(=O)[C@@H]1Cc2ccc(cc2)OCCCC[C@H](C(=O)NO)[C@@H](CC(C)C)C(=O)N1`, for which the results for the concentration for half-maximal inhibition (IC50) (on Matrilysin; in assay [1]; against Interstitial collagenase) were 1.6 nM, 2.2 nM and 1.8 nM, respectively.

As to `CNC(=O)[C@@H]1Cc2ccc(cc2)OCCCCC[C@H](C(=O)NO)[C@@H](CC(C)C)C(=O)N1`, the IC50 amounted to 2.6 nM at Matrilysin, 2.3 nM in assay [1] and 2.1 nM against Interstitial collagenase.

`CNC(=O)[C@@H]1Cc2ccc(cc2)OCCCC[C@H](C(=O)NO)[C@@H](CCCCOCc2ccccc2)C(=O)N1`: the IC50 was found to be 180 nM against Matrilysin, 1.8 nM on Stromelysin-1, 0.3 nM in assay [1] and 210 nM on Interstitial collagenase.

`CNC(=O)[C@@H]1Cc2ccc(cc2)OCCCC[C@H](C(=O)NO)[C@@H](CCCc2ccc(C)cc2)C(=O)N1`: the IC50 at Matrilysin was 2.8 nM; at Stromelysin-1, 9.1 nM; in assay [1], 0.8 nM; against Interstitial collagenase, 6.1 nM.

As for `CNC(=O)[C@@H]1Cc2ccc(cc2)OCCCC[C@@H](C(=O)NO)[C@@H](CC(C)C)C(=O)N1`, the IC50 against Matrilysin was found to be 440 nM; in assay [1], 230 nM; against Interstitial collagenase, 110 nM.

Regarding `CNC(=O)[C@@H]1Cc2ccc(cc2)OCCCCC[C@H](C(=O)O)[C@@H](CC(C)C)C(=O)N1`, the IC50 against Matrilysin was found to be 110 nM; against Stromelysin-1, 75 nM; in assay [1], 1400 nM; against Interstitial collagenase, 1400 nM.

On to `CC(C)C[C@H]1C(=O)N[C@H](C(=O)NCCN(C)C)Cc2ccc(cc2)OCCCC[C@@H]1C(=O)NO`, for which the IC50 against Matrilysin was 4.2 nM; at Stromelysin-1, 12 nM; in assay [1], 6.5 nM; against Interstitial collagenase, 6.6 nM.

Consider `CC(C)C[C@H]1C(=O)N[C@H](C(=O)NCCc2ccc(S(N)(=O)=O)cc2)Cc2ccc(cc2)OCCCC[C@@H]1C(=O)NO`, for which the IC50 at Matrilysin was 25 nM; in assay [1] it was 1.9 nM; against Interstitial collagenase it was 3 nM.

Consider `CCCc1ccc(CC[C@H]2C(=O)N[C@H](C(=O)NC)Cc3ccc(cc3)OCCCC[C@@H]2C(=O)NO)cc1`, for which the IC50 against Matrilysin was determined as 5.9 nM; in assay [1], 0.1 nM; on Interstitial collagenase, 54 nM.

With `CNC(=O)[C@@H]1Cc2ccc(cc2)OCCCCCC[C@H](C(=O)NO)[C@@H](CC(C)C)C(=O)N1`, the IC50 at Matrilysin turned out to be 5.7 nM; in assay [1] it was 5.9 nM; against Interstitial collagenase it was 2.2 nM.
